≈ marks a conversion by molar mass, not a printed value. Like-named read-outs stand apart in the source and are kept apart here. Marks after values point to notes of the source that are not given here.
Key:
MRSE 35984 = test: MIC, broth microdilution (CLSI); details: for MRSE 35984 MIC: 16 to 18 hours at 37° C.
VRE 700221 = test: MIC, broth microdilution (CLSI); details: for VRE 700221 MIC: 16 to 18 hours at 37° C.
MRSA BAA-1707 = test: MIC, broth microdilution (CLSI); details: 16 to 18 hours at 37° C.; 0.10 = lowest concentration tested
MRSA BAA-1707 biofilms = test: Calgary Biofilm Device (CBD) assay, MBC/MBEC; details: CBD; for MRSA BAA-1707 MBEC: biofilm eradication; for MRSA BAA-1707 MBC: planktonic killing
VRE 700221 biofilms = test: Calgary Biofilm Device (CBD) assay, MBC/MBEC; details: CBD; for VRE 700221 MBEC: biofilm eradication; for VRE 700221 MBC: planktonic killing
MRSE 35984 biofilms = test: Calgary Biofilm Device (CBD) assay, MBC/MBEC; details: CBD; for MRSE 35984 MBEC: biofilm eradication; for MRSE 35984 MBC: planktonic killing
MRSA-2 biofilms = test: Calgary Biofilm Device (CBD) assay, MBC/MBEC; details: for MRSA-2 MBEC: biofilm eradication

Oc1c(Br)cc(Br)c2nc3cc(Oc4ccccc4)ccc3nc12 [Compound 34]
MRSE 35984 MIC (MRSE 35984): 0.1 µM
VRE 700221 MIC (VRE 700221): 0.2 µM
MRSA BAA-1707 MIC (MRSA BAA-1707): 0.1 µM
MRSA BAA-1707 MBEC (MRSA BAA-1707 biofilms): 2.35 µM

CC1=C(C)C(=O)C(COC(=O)OCOc2c(Br)cc(Br)c3nc4cc(Cl)ccc4nc23)=C(C)C1=O [87A]
Hemolysis at 200 μM (human red blood cells): 2.7%
MRSA BAA-1707 MIC (MRSA BAA-1707): 0.15 µM
IC50 (HeLa cells): > 100 µM
MRSA BAA-1707 MBEC (MRSA BAA-1707 biofilms): 12.5 µM

CC1=C(C)C(=O)C(COC(=O)OCOc2c(Br)cc(Br)c3nc4ccccc4nc23)=C(C)C1=O [Compound 86A]
VRE 700221 MBEC (VRE 700221 biofilms): 9.38 µM
VRE 700221 MBC (VRE 700221 biofilms): 12.5 µM
MRSE 35984 MIC (MRSE 35984): 2.35^a μM
Hemolysis at 200 μM (human red blood cells): ≤1%
VRE 700221 MIC (VRE 700221): 9.38^a μM
MRSA BAA-1707 MIC (MRSA BAA-1707): 2.35^a μM
MRSA BAA-1707 MBC (MRSA BAA-1707 biofilms): 25 µM
MRSE 35984 MBEC (MRSE 35984 biofilms): 150 µM
MRSE 35984 MBC (MRSE 35984 biofilms): 37.5 µM

CS(=O)(=O)N1CCN(C(=O)Oc2c(Br)cc(Br)c3nc4ccccc4nc23)C1=O [Compound 31]
MRSE 35984 MIC (MRSE 35984): 0.78 µM
VRE 700221 MIC (VRE 700221): 3.13 µM
MRSA BAA-1707 MBEC (MRSA BAA-1707 biofilms): 75 µM

COCCOCCOCCOCCOC(=O)Oc1c(Br)cc(Br)c2nc3cc(Cl)ccc3nc12 [Compound 77A]
MRSE 35984 MIC (MRSE 35984): 0.1^b μM
Hemolysis at 200 μM (human red blood cells): 1.1%
VRE 700221 MIC (VRE 700221): 0.1^b μM
MRSA BAA-1707 MIC (MRSA BAA-1707): 0.0005^a μM
IC50 (HeLa cells): > 100 µM
MRSE 35984 MBEC (MRSE 35984 biofilms): 18.8 µM
MRSE 35984 MBC (MRSE 35984 biofilms): 9.38 µM

O=C(OCCSSCCOC(=O)c1ccccc1)OCOc1c(Br)cc(Br)c2nc3ccccc3nc12 [Compound 85A]
MRSE 35984 MIC (MRSE 35984): >100 µM
Hemolysis at 200 μM (human red blood cells): 1.3%
VRE 700221 MIC (VRE 700221): >100 µM
MRSA BAA-1707 MIC (MRSA BAA-1707): >100 µM
IC50 (HeLa cells): > 100 µM

COCCOCCOCCOC(=O)OCOc1c(Br)cc(Br)c2nc3ccccc3nc12 [Compound 80A]
MRSE 35984 MIC (MRSE 35984): >100 µM
Hemolysis at 200 μM (human red blood cells): 1.4%
VRE 700221 MIC (VRE 700221): >100 µM
MRSA BAA-1707 MIC (MRSA BAA-1707): >100 µM

O=C(OCCOCCOCCOCCO)OCOc1c(Br)cc(Br)c2nc3ccccc3nc12 [Compound 82A]
MRSE 35984 MIC (MRSE 35984): >100 µM
Hemolysis at 200 μM (human red blood cells): 2.7%
VRE 700221 MIC (VRE 700221): >100 µM
MRSA BAA-1707 MIC (MRSA BAA-1707): >100 µM
IC50 (HeLa cells): > 100 µM

Oc1c(Br)cc(Br)c2nc3cc(Oc4ccccc4)ccc3nc12 [63A]
MRSE 35984 MIC (MRSE 35984): 0.1 µM
VRE 700221 MIC (VRE 700221): 0.2 µM
MRSA BAA-1707 MIC (MRSA BAA-1707): 0.075 µM
IC50 (HeLa cells): > 100 µM
MRSA BAA-1707 MBEC (MRSA BAA-1707 biofilms): 2.35 µM

CCN(CC)c1ccc2nc3c(O)c(Br)cc(Br)c3nc2c1Br [64A]
IC50 (HeLa cells): > 100 µM
MRSA BAA-1707 MBEC (MRSA BAA-1707 biofilms): 4.69 µM

CCCc1ccc2nc3c(O)c(Br)cc(Br)c3nc2c1 [Compound 54A]
MRSE 35984 MIC (MRSE 35984): 0.15^a μM
Hemolysis at 200 μM (human red blood cells): 2.1%
VRE 700221 MIC (VRE 700221): 3.13 µM
MRSA BAA-1707 MIC (MRSA BAA-1707): 0.1^b μM
MRSA BAA-1707 MBEC (MRSA BAA-1707 biofilms): 75 µM
MRSA BAA-1707 MBC (MRSA BAA-1707 biofilms): 37.5 µM
MRSE 35984 MBEC (MRSE 35984 biofilms): 37.5 µM
MRSE 35984 MBC (MRSE 35984 biofilms): 25 µM

Cc1ccc2nc3c(O)c(Br)cc(Br)c3nc2c1C [HP 1-19]
MIC (MRSE 35984; Staphylococcus epidermidis, MRSE, read-out: MRSE 35984 MIC, 16 to 18 hours at 37° C.): 0.3 µM (≈ 0.115 µg/mL)
Hemolysis at 200 μM (human red blood cells; human, 1 h, 200 μM, pH 7.2): 5.3%
MIC (VRE 700221; Enterococcus, VRE, read-out: VRE 700221 MIC, 16 to 18 hours at 37° C.): 0.15 µM (≈ 0.0573 µg/mL)

COCCOCCOCC(=O)Oc1c(Br)cc(Br)c2nc3ccccc3nc12 [Compound 75A]
Hemolysis at 200 μM (human red blood cells): 1.2%
VRE 700221 MIC (VRE 700221): 3.13 µM
MRSA BAA-1707 MIC (MRSA BAA-1707): 0.59^a μM
IC50 (HeLa cells): > 100 µM
MRSA BAA-1707 MBEC (MRSA BAA-1707 biofilms): 75 µM
MRSA BAA-1707 MBC (MRSA BAA-1707 biofilms): 18.8 µM
MRSE 35984 MBEC (MRSE 35984 biofilms): 37.5 µM
MRSE 35984 MBC (MRSE 35984 biofilms): 9.38 µM

Cc1ccc2nc3c(O)ccc(Br)c3nc2c1 [66A]
IC50 (HeLa cells): > 100 µM

CCCc1cn(Cc2ccc3nc4c(OC(C)=O)c(Br)cc(Br)c4nc3c2)nn1 [Compound 74A]
VRE 700221 MIC (VRE 700221): >100 µM
MRSA BAA-1707 MIC (MRSA BAA-1707): 100 ^ μM

OC[C@H]1O[C@@H](Oc2c(Br)cc(Br)c3nc4ccccc4nc23)[C@H](O)[C@@H](O)[C@@H]1O [Compound 79A]
Hemolysis at 200 μM (human red blood cells): ≤1%

CCCc1cn(Cc2ccc3nc4c(OC(C)=O)c(Br)cc(Br)c4nc3c2)nn1 [compound 74]
MRSE 35984 MIC (MRSE 35984): 18.8 µM

CCOc1ccc2nc3c(O)c(Br)cc(Br)c3nc2c1 [Compound 60A]
MRSE 35984 MIC (MRSE 35984): 18.8^a μM
VRE 700221 MIC (VRE 700221): >100 µM
MRSA BAA-1707 MIC (MRSA BAA-1707): >100 ^ μM

CC1=C(C)C(=O)C(COC(=O)OCOc2c(Br)cc(Br)c3nc4cc(Cl)ccc4nc23)=C(C)C1=O [Compound 87A]
VRE 700221 MBEC (VRE 700221 biofilms): 3.13^c/3.13^c μM
VRE 700221 MBC (VRE 700221 biofilms): 3.13^c/3.13^c μM
VRE 700221 MIC (VRE 700221): 1.56 µM
MRSA BAA-1707 MIC (MRSA BAA-1707): 0.15^a μM
MRSA BAA-1707 MBC (MRSA BAA-1707 biofilms): 6.25 µM
MRSE 35984 MBEC (MRSE 35984 biofilms): 25 µM
MRSE 35984 MBC (MRSE 35984 biofilms): 12.5 µM

C[C@H]1c2cccc(O)c2C(=O)C2=C(O)[C@]3(O)C(=O)C(C(N)=O)=C(O)[C@@H](N(C)C)[C@@H]3[C@@H](O)[C@@H]21 [Doxycycline]
MRSA-2 MBEC (MRSA-2 biofilms; CBD): 46.9 µM
MBC (MRSA-2 biofilms; Staphylococcus aureus, MRSA, read-out: MRSA-2 MBC): 2 µM (≈ 0.889 µg/mL)

N#CC(C#N)=NNc1cccc(Cl)c1 [CCCP, reference compound]
MRSA-2 MBEC (MRSA-2 biofilms; CBD): 1000 µM
MRSA-2 MBC (MRSA-2 biofilms; CBD, planktonic killing): 31.3 µM
MRSE 35984 MBEC (MRSE 35984 biofilms): 93.8 µM
MRSE 35984 MBC (MRSE 35984 biofilms): 31.3 µM

From patent publication US11053205B2, “Phenazine derivatives as antimicrobial agents” (University of Florida Research Foundation, Incorporated, priority 2017, dated 2021)
